This note sets out measurements from patent US20250177383A1, “DI-CYCLOPROPYL BASED IL-17A MODULATORS AND USES THEREOF” (DICE ALPHA, INC., priority 2022, published 2025).

Where only a bound is given, the exact number is not on record here.

Experiment [1] addresses T1, IL-17A/A (Homo sapiens, UniProt Q16552).
T1 sequence (Q16552 24-155): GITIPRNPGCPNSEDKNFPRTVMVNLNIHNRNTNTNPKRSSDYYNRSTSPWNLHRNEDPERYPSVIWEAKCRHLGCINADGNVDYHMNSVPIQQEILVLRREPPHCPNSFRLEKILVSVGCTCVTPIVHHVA
Put plainly: IL-17A/A HEK-Blue Cell Assay. In kind it is cell-based. The following applies: HEK-Blue IL-17 reporter cells, IL-17A/A stimulation, 20 hours, SEAP readout; for IC50: read-out: IL17 AA HEK-5 pIC50 (converted). The essentials:
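Cells co-expressing IL-17RA, IL-17RC and Act1 received titrated compound, top final 10 uM in 0.1% DMSO, immediately before IL-17A/A stimulation.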

The target in experiment [2] is T2, IL-17A/F (Homo sapiens, UniProt Q16552+Q96PD4).
T2 sequence (Q16552 24-155): T1 sequence (Q16552 24-155)
T2 sequence (Q96PD4 31-163): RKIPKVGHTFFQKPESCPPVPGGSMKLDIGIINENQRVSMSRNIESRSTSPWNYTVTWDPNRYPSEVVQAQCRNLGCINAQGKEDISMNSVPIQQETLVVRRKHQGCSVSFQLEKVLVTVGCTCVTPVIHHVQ
Put plainly: IL-17A/F HEK-Blue Cell Assay. The format is cell-based. The conditions noted are these: HEK-Blue IL-17 reporter cells, IL-17A/F stimulation, 20 hours, SEAP readout; for IC50: read-out: IL17AF HEK Blue pIC50 (converted). How it is done:
The HEK-Blue IL-17 reporter cell line (Fisher #NC1408637) was used for cell-based IL-17A/F inhibition assays. Cells were grown and prepared for assays according to the manufacturer's instructions. This cell line consists of HEK 293 cells that were designed to expressed IL-17RA, IL-17R^C, and the ActI adapter molecule, the combination of which, when stimulated by IL-17A/A activates a NFκB promoter and drives expression of a recombinant Secreted Alkaline Phosphatase (SEAP) geneprotein. Media from the cells is then added to a development reagent (Quanti-Blue Substrate, Fisher #NC9711613), and read at A630.
Compounds were titrated in DMSO and added to the cells immediately before adding IL-17A/A (Custom from R&D systems, untagged IL-17A/F+BSA as a carrier protein). The cells, compound, and IL-17A/A were then incubated for 20 hours before media was removed for SEAP analysis. The resulting inhibition curve was then analyzed using a Dotmatics screening protocol, and IC50 values were determined using a 4-parameter nonlinear fit. DMSO was added to a universal final concentration of 0.1% to optimize background.

Consider `COCC(=O)N[C@@H](C(=O)N1CCN(C)CC1)[C@@H](C)c1ccc(NC(=O)[C@@H](NC(=O)c2nonc2C)C(C2CC2)C2CC2)c(F)c1` [Compound 346], for which the IC50 in experiment [1] is 10 to 100 nM; in experiment [2] it was 100 to 10000 nM.

`CCC(=O)N[C@@H](C(=O)N1CCC[C@H](N)C1)[C@@H](C)c1ccc(NC(=O)[C@@H](NC(=O)c2ccnn2CC)C(C2CC2)C2CC2)c(F)c1` [Compound 267]: the IC50 was 10 to 100 nM in experiment [1] and 100 to 10000 nM in experiment [2].

For the compound `CCn1nccc1C(=O)N[C@H](C(=O)Nc1ccc([C@H](C)[C@@H](NC(=O)[C@H](C)OC)C(=O)N2C[C@@H](C)N(C)C[C@H]2C)cc1F)C(C1CC1)C1CC1` [Compound 287], the IC50 in experiment [1] and in experiment [2] was under 10 nM each time.

As to `CCn1nccc1C(=O)N[C@H](C(=O)Nc1ccc(C(C(NC(=O)[C@H](C)OC)C(=O)N2CCN(C)[C@H](C)C2)C(F)(F)F)cc1F)C(C1CC1)C1CC1` (single isomer, unassigned) [Compound 351], the IC50 in experiment [1] and in experiment [2] was 100 to 10000 nM each time.

On to `CO[C@@H](C)C(=O)N[C@@H](C(=O)N1CCN(C)[C@H](C)C1)[C@@H](C)c1ccc(NC(=O)[C@@H](NC(=O)C2(F)CC2)C(C2CC2)C2CC2)c(F)c1` [Compound 273], for which the IC50 in experiment [1] is under 10 nM; in experiment [2], 100 to 10000 nM.

As to `CCC(OC)C(=O)N[C@@H](C(=O)N1CCN(C)[C@H](C)C1)[C@@H](C)c1ccc(NC(=O)[C@@H](NC(=O)C2(F)CC2)C(C2CC2)C2CC2)c(F)c1` (single isomer, unassigned) [Compound 337], the IC50 in experiment [1] is under 10 nM. For the same compound, the “IL17AF HEK Blue pIC50” value in experiment [2] was “C (7>C≥5)”.

As for `CCn1nccc1C(=O)N[C@H](C(=O)Nc1ccc([C@H](C)[C@@H](NC(=O)[C@H](C)OC)C(=O)N2CCN(C)C[C@@H]2C)cc1F)C(C1CC1)C1CC1` [Compound 284], the IC50 in experiment [1] was under 10 nM; in experiment [2], 10 to 100 nM.

With `COCC(=O)N[C@@H](C(=O)N1CCN(C)CC1)[C@@H](C)c1ccc(NC(=O)[C@@H](NC(=O)c2ccnn2C(C)C)C(C2CC2)C2CC2)c(F)c1` [Compound 345], the figures for the IC50 in experiment [1] and in experiment [2] were under 10 nM and 10 to 100 nM, respectively.

For the compound `CO[C@@H](C)C(=O)N[C@@H](C(=O)N1CCNC(CF)C1)[C@@H](C)c1ccc(NC(=O)[C@@H](NC(=O)C2(F)CC2)C(C2CC2)C2CC2)c(F)c1` (single isomer, unassigned) [Compound 301], the IC50 in experiment [1] was 10 to 100 nM; in experiment [2], 100 to 10000 nM.

As for `CCC(OC)C(=O)N[C@@H](C(=O)N1CCN(C)[C@H](C)C1)[C@@H](C)c1ccc(NC(=O)[C@@H](NC(=O)C2(F)CC2)C(C2CC2)C2CC2)c(F)c1` (single isomer, unassigned) [Compound 336], the IC50 is 10 to 100 nM in experiment [1] and 100 to 10000 nM in experiment [2].

For `CCn1nccc1C(=O)N[C@H](C(=O)Nc1ccc([C@H](C)[C@@H](NC(=O)C(C)C(F)(F)F)C(=O)N2CCN(C)[C@H](C)C2)cc1F)C(C1CC1)C1CC1` (single isomer, unassigned) [Compound 326], the IC50 in experiment [1] is 10 to 100 nM; in experiment [2], 100 to 10000 nM.

As to `COC(=O)N1CC[C@H]1C(=O)N[C@@H](C(=O)N1CCN(C)[C@H](C)C1)[C@@H](C)c1ccc(NC(=O)[C@@H](NC(=O)C2(F)CC2)C(C2CC2)C2CC2)c(F)c1` [Compound 278], the IC50 in experiment [1] was under 10 nM; in experiment [2], 100 to 10000 nM.

`CCOC(=O)N1CC[C@H]1C(=O)N[C@@H](C(=O)N1CCN(C)[C@H](C)C1)[C@@H](C)c1ccc(NC(=O)[C@@H](NC(=O)C2(F)CC2)C(C2CC2)C2CC2)c(F)c1` [Compound 275]: the IC50 was under 10 nM in experiment [1] and 100 to 10000 nM in experiment [2].

As to `CCn1nccc1C(=O)N[C@H](C(=O)Nc1ccc(C(C(NC(=O)[C@H](C)OC)C(=O)N2CCN(C)[C@H](C)C2)C(F)(F)F)cc1F)C(C1CC1)C1CC1` (single isomer, unassigned) [Compound 357], the IC50 in experiment [1] and in experiment [2] was 100 to 10000 nM each time.

On to `CCn1nccc1C(=O)N[C@H](C(=O)Nc1ccc([C@H](C)[C@@H](NC(=O)C(C)CC(F)(F)F)C(=O)N2CCN(C)CC2)cc1F)C(C1CC1)C1CC1` (single isomer, unassigned) [Compound 332], for which the “IL17 AA HEK-5 pIC50” value in experiment [1] is “B (8>B≥7 as B)”. Also, in experiment [2], the IC50 is 10 to 100 nM.

As to `CCOC(=O)N[C@@H](C)C(=O)N[C@@H](C(=O)N1CCN(C)[C@H](C)C1)[C@@H](C)c1ccc(NC(=O)[C@@H](NC(=O)C2(F)CC2)C(C2CC2)C2CC2)c(F)c1` [Compound 282], the IC50 in experiment [1] is under 10 nM; in experiment [2] it was 10 to 100 nM.

For `CCOC(=O)N1CCC[C@H]1C(=O)N[C@@H](C(=O)N1CCN(C)[C@H](C)C1)[C@@H](C)c1ccc(NC(=O)[C@@H](NC(=O)C2(F)CC2)C(C2CC2)C2CC2)c(F)c1` [Compound 279], the IC50 was under 10 nM in experiment [1] and 100 to 10000 nM in experiment [2].

Turning to `CCn1nccc1C(=O)N[C@H](C(=O)Nc1ccc([C@H](C)[C@@H](NC(=O)[C@H](C)N(C)c2ncncn2)C(=O)N2CCN(C)[C@H](C)C2)cc1F)C(C1CC1)C1CC1` [Compound 305], the IC50 in experiment [1] and in experiment [2] was under 10 nM each time.

Take `CCC(=O)NC(C(=O)N1CCN(C)CC1)C(c1ccc(NC(=O)[C@@H](NC(=O)c2ccnn2CC)C(C2CC2)C2CC2)c(F)c1)C(F)(F)F` (single isomer, unassigned) [Compound 352]: the IC50 in experiment [1] is 100 to 10000 nM. Besides, the “IL17AF HEK Blue pIC50” value in experiment [2] is listed as “C (7>C≥5)”.

On to `CCn1nccc1C(=O)N[C@H](C(=O)Nc1ccc([C@H](C)[C@@H](NC(=O)N(C)C2CC2)C(=O)N2CCN(C)[C@H](C)C2)cc1F)C(C1CC1)C1CC1` [Compound 291], for which the IC50 in experiment [1] and in experiment [2] was under 10 nM in each case.

In the case of `CCn1nccc1C(=O)N[C@H](C(=O)Nc1ccc([C@H](C)[C@@H](NC(=O)C(C2CC2)C2CC2)C(=O)N2CCN(C)CC2)cc1F)C(C1CC1)C1CC1` [Compound 330], the IC50 in experiment [1] is under 10 nM; in experiment [2], 10 to 100 nM.

For the compound `CCn1nccc1C(=O)N[C@H](C(=O)Nc1ccc([C@H](C)[C@@H](NC(=O)C(C)C2CC2)C(=O)N2CCN(C)CC2)cc1F)C(C1CC1)C1CC1` (single isomer, unassigned) [Compound 317], the results for the IC50 in experiment [1] and in experiment [2] were under 10 nM and 10 to 100 nM, respectively.

Consider `CCn1nccc1C(=O)N[C@H](C(=O)Nc1ccc([C@H](C)[C@@H](NC(=O)COC)C(=O)N2C[C@@H](C)N(C)[C@@H](C)C2)cc1F)C(C1CC1)C1CC1` [Compound 293], for which the IC50 is under 10 nM in experiment [1] and 10 to 100 nM in experiment [2].

For `CCOC(=O)N[C@@H](C)C(=O)N[C@@H](C(=O)N1CCN(C)CC1)[C@@H](C)c1ccc(NC(=O)[C@@H](NC(=O)C2(F)CC2)C(C2CC2)C2CC2)c(F)c1` [Compound 269], the IC50 in experiment [1] is under 10 nM; in experiment [2], 100 to 10000 nM.

Consider `CCOCCN(C)C(=O)N[C@@H](C(=O)N1CCN(C)CC1)[C@@H](C)c1ccc(NC(=O)[C@@H](NC(=O)c2ccnn2CC)C(C2CC2)C2CC2)c(F)c1` [Compound 316], for which the IC50 is 10 to 100 nM in experiment [1] and 100 to 10000 nM in experiment [2].

`CCOC(=O)N[C@@H](CF)C(=O)N[C@@H](C(=O)N1CCN(C)CC1)[C@@H](C)c1ccc(NC(=O)[C@@H](NC(=O)c2nonc2C)C(C2CC2)C2CC2)c(F)c1` [Compound 360]: the IC50 in experiment [1] was under 10 nM; in experiment [2], 10 to 100 nM.

Consider `CCC(=O)N[C@@H](C(=O)N1C[C@@H](C)N(C)C[C@H]1C)[C@@H](C)c1ccc(NC(=O)[C@@H](NC(=O)C2(F)CC2)C(C2CC2)C2CC2)c(F)c1` [Compound 288], for which the IC50 was under 10 nM in experiment [1] and 100 to 10000 nM in experiment [2].

Regarding `CCn1nccc1C(=O)N[C@H](C(=O)Nc1ccc([C@H](C)[C@@H](NC(=O)COC)C(=O)N2CCN(C)C[C@@H]2C)cc1F)C(C1CC1)C1CC1` [Compound 283], the IC50 in experiment [1] is under 10 nM; in experiment [2] it was 10 to 100 nM.

`COC(=O)N1CCC[C@H]1C(=O)N[C@@H](C(=O)N1CCN(C)[C@H](C)C1)[C@@H](C)c1ccc(NC(=O)[C@@H](NC(=O)C2(F)CC2)C(C2CC2)C2CC2)c(F)c1` [Compound 281]: the IC50 is under 10 nM in experiment [1] and 100 to 10000 nM in experiment [2].

As for `CCn1nccc1C(=O)N[C@H](C(=O)Nc1ccc([C@H](C)[C@@H](NC(=O)C(C)OCCOC)C(=O)N2CCN(C)[C@H](C)C2)cc1F)C(C1CC1)C1CC1` (single isomer, unassigned) [Compound 311], the IC50 in experiment [1] was 10 to 100 nM; in experiment [2], 100 to 10000 nM.

On to `CO[C@@H](C)C(=O)N[C@@H](C(=O)N1C[C@H]2CC[C@@H](C1)N2C)[C@@H](C)c1ccc(NC(=O)[C@@H](NC(=O)C2(F)CC2)C(C2CC2)C2CC2)c(F)c1` [Compound 294], for which the IC50 in experiment [1] is 10 to 100 nM; in experiment [2], 100 to 10000 nM.
